ChEMBL document CHEMBL5046290, “Design, Synthesis, and Preclinical Profiling of GSK3739936 (BMS-986180), an Allosteric Inhibitor of HIV-1 Integrase with Broad-Spectrum Activity toward 124/125 Polymorphs” (J Med Chem, 2022)

Tests used:
[1] = test system: Human immunodeficiency virus 1; assay: Antiviral activity against recombinant HIV1 NLRep-Rluc harbouring polymorphic NT infected in human MT-2 cells assessed as inhibition of virus growth in presence of fetal bovine serum by measuring luciferase activity after 5 days; assay type: functional, organism-based; conditions: Human immunodeficiency virus 1, NLRep, MT2, 120 h
[2] = Metabolic stability in human liver microsome assessed half life at 0.5 uM by LC-MS/MS analysis; assay type: ADME; conditions: liver microsomes
[3] = test system: Human immunodeficiency virus 1; assay: Antiviral activity against recombinant HIV1 NLRep-Rluc harbouring polymorphic T124/T125 integrase infected in human MT-2 cells assessed as inhibition of virus growth in presence of fetal bovine serum by measuring luciferase activity after 5 days; assay type: functional, organism-based, MT2
[4] = Clearance in Sprague-Dawley rat at 1 mg/kg, iv by LC-MS/MS analysis; assay type: ADME, organism-based; conditions: in vivo
[5] = test system: Human immunodeficiency virus 1; assay: Antiviral activity against recombinant HIV1 NLRep-Rluc harbouring polymorphic NA infected in human MT-2 cells assessed as inhibition of virus growth in presence of fetal bovine serum by measuring luciferase activity after 5 days; assay type: functional, organism-based; conditions: Human immunodeficiency virus 1, NLRep, MT2, 120 h
[6] = Cytotoxicity against human MT2 cells assessed as cell viability measured after 4 days by XTT assay; assay type: toxicity, cell-based; conditions: time 4 day
[7] = Displacement of [3H](S)-2-(tert-butoxy)-2-(2-methyl-4-(p-tolyl)quinolin-3-yl)acetic acid from LEDGF-binding site of recombinant T124/T125 polymorphic HIV1 integrase by LIDIA assay; parameters: species or system Human immunodeficiency virus 1
[8] = test system: Human immunodeficiency virus 1; assay: Antiviral activity against recombinant HIV1 NLRep-Rluc harbouring polymorphic AT infected in human MT-2 cells assessed as inhibition of virus growth in presence of fetal bovine serum by measuring luciferase activity after 5 days; assay type: functional, organism-based; conditions: Human immunodeficiency virus 1, NLRep, MT2, 120 h
[9] = test system: Human immunodeficiency virus 1; assay: Antiviral activity against recombinant HIV1 NLRep-Rluc harbouring polymorphic AA infected in human MT-2 cells assessed as inhibition of virus growth in presence of fetal bovine serum by measuring luciferase activity after 5 days; assay type: functional, organism-based; conditions: Human immunodeficiency virus 1, NLRep, MT2, 120 h
[10] = test system: Human immunodeficiency virus 1; assay: Antiviral activity against recombinant HIV1 NLRep-Rluc harbouring polymorphic TA infected in human MT-2 cells assessed as inhibition of virus growth in presence of fetal bovine serum by measuring luciferase activity after 5 days; assay type: functional, organism-based; conditions: Human immunodeficiency virus 1, NLRep, MT2, 120 h
[11] = test system: Human immunodeficiency virus 1; assay: Antiviral activity against recombinant HIV1 A128T-resitant mutant […] infected in human MT-2 cells assessed as inhibition of virus growth in presence of fetal bovine serum by measuring luciferase activity after 5 days; assay type: functional, organism-based; conditions: Human immunodeficiency virus 1, MT2, 120 h
[12] = Metabolic stability in rat liver microsome assessed half life at 0.5 uM by LC-MS/MS analysis; assay type: ADME; conditions: liver microsomes
[13] = biological target: T1, Solute carrier organic anion transporter family member 1B1 (Homo sapiens, UniProt Q9Y6L6); assay: Inhibition of OATP1B1 (unknown origin); assay type: ADME
T1 sequence (Q9Y6L6 whole entry): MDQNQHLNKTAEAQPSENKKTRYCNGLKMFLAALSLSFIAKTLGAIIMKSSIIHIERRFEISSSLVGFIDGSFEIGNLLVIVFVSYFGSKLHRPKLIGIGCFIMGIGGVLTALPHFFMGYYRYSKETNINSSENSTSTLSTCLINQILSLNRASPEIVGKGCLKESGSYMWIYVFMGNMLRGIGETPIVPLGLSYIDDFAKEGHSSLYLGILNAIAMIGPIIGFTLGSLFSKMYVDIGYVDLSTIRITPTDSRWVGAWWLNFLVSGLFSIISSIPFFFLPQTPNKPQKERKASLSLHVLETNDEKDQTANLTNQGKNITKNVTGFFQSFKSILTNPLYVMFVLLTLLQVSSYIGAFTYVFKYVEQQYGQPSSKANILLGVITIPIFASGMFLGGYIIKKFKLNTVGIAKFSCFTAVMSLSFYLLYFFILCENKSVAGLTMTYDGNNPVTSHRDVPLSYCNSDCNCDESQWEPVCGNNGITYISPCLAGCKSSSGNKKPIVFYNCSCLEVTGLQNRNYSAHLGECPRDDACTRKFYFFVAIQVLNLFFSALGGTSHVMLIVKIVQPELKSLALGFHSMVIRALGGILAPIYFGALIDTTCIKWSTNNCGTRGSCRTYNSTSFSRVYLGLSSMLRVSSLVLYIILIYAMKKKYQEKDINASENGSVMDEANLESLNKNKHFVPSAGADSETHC

[14] = test system: Human immunodeficiency virus 1; assay: Anti retroviral activity against HIV-1 NL4-3 harboring at TA polymorph infected in human MT4 cells by CellTitre-Glo luminescent reagent based assay; assay type: functional, organism-based; conditions: Human immunodeficiency virus 1, NL4-3, MT4
[15] = test system: Human immunodeficiency virus 1; assay: Anti retroviral activity against HIV-1 NL4-3 harboring at TT polymorph infected in human MT4 cells by CellTitre-Glo luminescent reagent based assay; assay type: functional, organism-based; conditions: Human immunodeficiency virus 1, NL4-3, MT4
[16] = test system: Human immunodeficiency virus 1; assay: Anti retroviral activity against HIV-1 NL4-3 harboring at AA polymorph infected in human MT4 cells by CellTitre-Glo luminescent reagent based assay; assay type: functional, organism-based; conditions: Human immunodeficiency virus 1, NL4-3, MT4
[17] = test system: Human immunodeficiency virus 1; assay: Anti retroviral activity against HIV-1 NL4-3 harboring at AT polymorph infected in human MT4 cells by CellTitre-Glo luminescent reagent based assay; assay type: functional, organism-based; conditions: Human immunodeficiency virus 1, NL4-3, MT4
[18] = Stability in human liver microsome assessed as half life; assay type: ADME; conditions: liver microsomes
[19] = test system: Human immunodeficiency virus 1; assay: Anti retroviral activity against HIV-1 NL4-3 harboring at NT polymorph infected in human MT4 cells by CellTitre-Glo luminescent reagent based assay; assay type: functional, organism-based; conditions: Human immunodeficiency virus 1, NL4-3, MT4
[20] = test system: Human immunodeficiency virus 1; assay: Anti retroviral activity against HIV-1 NL4-3 harboring at NA polymorph infected in human MT4 cells by CellTitre-Glo luminescent reagent based assay; assay type: functional, organism-based; conditions: Human immunodeficiency virus 1, NL4-3, MT4
[21] = Human immunodeficiency virus 1, NLRep, MT2, 120 h

SMILES	half-life at 0.5 µM [2]	EC50 [3, 21]	clearance [4]	CC50 at 96 h [6]	IC50 [7]	half-life at 0.5 µM [12]	also measured
Cc1ncsc1CCOc1ccc(-c2c(C)nc(C)c([C@H](OC(C)(C)C)C(=O)O)c2N2CCC(C)(C)CC2)cc1	1.5 h	0.8 nM	69 mL/min/kg	≥ 25000 nM	12.7 nM	> 2 h	EC50 [1]: 1 nM; EC50 [5]: 1.3 nM; EC50 [8]: 1 nM; EC50 [9]: 0.7 nM; EC50 [10]: 0.75 nM; EC50 [11]: 107 nM
COc1ccc(CCOc2ccc(-c3c(C)nc(C)c([C@H](OC(C)(C)C)C(=O)O)c3N3CCC(C)(C)CC3)cc2)cc1	> 2 h	3.9 nM	13.4 mL/min/kg	≥ 33500 nM	13.2 nM	> 2 h	–
Cc1nc(C)c([C@H](OC(C)(C)C)C(=O)O)c(N2CCC(C)(C)CC2)c1-c1ccc(OCCc2ccc(C#N)cc2)cc1	–	1.5 nM	–	≥ 33500 nM	13.3 nM	–	IC50 [13]: 100 nM
Cc1nc(C)c([C@H](OC(C)(C)C)C(=O)O)c(N2CCC(C)(C)CC2)c1-c1ccc(OCCc2ccc(F)cc2F)cc1	1.08 h	3.6 nM	9 mL/min/kg	≥ 33500 nM	11.6 nM	> 2 h	–
Cc1nc(C)c([C@H](OC(C)(C)C)C(=O)O)c(N2CCC(C)(C)CC2)c1-c1ccc(NCCc2ccc(F)cc2)cc1	0.683 h	5.4 nM	12 mL/min/kg	≥ 32000 nM	18 nM	1.83 h	–
Cc1noc(C)c1CCOc1ccc(-c2c(C)nc(C)c([C@H](OC(C)(C)C)C(=O)O)c2N2CCC(C)(C)CC2)cc1	0.467 h	1.5 nM	58.9 mL/min/kg	≥ 25000 nM	11.4 nM	1.32 h	–
Cc1nc(C)c([C@H](OC(C)(C)C)C(=O)O)c(N2CCC(C)(C)CC2)c1-c1ccc(OCCc2ccc(F)c(F)c2)cc1	> 2 h	2.7 nM	5.8 mL/min/kg	≥ 33500 nM	6.7 nM	0.85 h	EC50 [1]: 2.1 nM; EC50 [5]: 7 nM; EC50 [8]: 2.7 nM; EC50 [9]: 3.7 nM; EC50 [10]: 1.8 nM; EC50 [11]: 255 nM
Cc1sc(-c2ccncc2)c(C2=CCC(C)(C)CC2)c1[C@H](OC(C)(C)C)C(=O)O	–	–	–	–	–	–	EC50 [14]: 1600 nM; EC50 [15]: 31 nM; EC50 [16]: 1500 nM; EC50 [17]: 14000 nM
Cc1cc(CCOc2ccc(-c3c(C)nc(C)c([C@H](OC(C)(C)C)C(=O)O)c3N3CCC(C)(C)CC3)cc2)ccc1F	> 2 h	4.8 nM	7.8 mL/min/kg	≥ 33500 nM	21.1 nM	> 2 h	–
Cc1nc(CCOc2ccc(-c3c(C)nc(C)c([C@H](OC(C)(C)C)C(=O)O)c3N3CCC(C)(C)CC3)cc2)cs1	0.683 h	5 nM	–	≥ 25000 nM	32.6 nM	1.75 h	–
Cc1nc(C)c([C@H](OC(C)(C)C)C(=O)O)c(N2CCC(C)(C)CC2)c1-c1ccc(OCCc2cc(F)c(F)cc2F)cc1	> 2 h	3.3 nM	8.1 mL/min/kg	≥ 33500 nM	18.1 nM	> 2 h	–
Cc1nc(C)c(CCOc2ccc(-c3c(C)nc(C)c([C@H](OC(C)(C)C)C(=O)O)c3N3CCC(C)(C)CC3)cc2)s1	0.917 h	1.1 nM	30.1 mL/min/kg	≥ 25000 nM	11.7 nM	> 2 h	–
Cc1nc(C)c([C@H](OC(C)(C)C)C(=O)O)c(N2CCC(C)(C)CC2)c1-c1ccc(OCCc2cc(F)ccc2F)cc1	–	2.8 nM	18.7 mL/min/kg	≥ 33500 nM	14.7 nM	–	–
Cc1nc(C)c([C@H](OC(C)(C)C)C(=O)O)c(N2CCC(C)(C)CC2)c1-c1ccc(OCCc2cccnc2)cc1	0.367 h	1.3 nM	–	≥ 25000 nM	19.3 nM	0.783 h	–
Cc1nc(C)c([C@H](OC(C)(C)C)C(=O)O)c(N2CCC(C)(C)CC2)c1-c1ccc(OC2COCC2c2ccc(F)cc2)cc1 (stereo in doubt; 40b)	0.783 h	–	23.4 mL/min/kg	–	7.9 nM	> 2 h	EC50 [1]: 0.53 nM; EC50 ([3]; mt2): 0.6 nM; EC50 [5]: 3.7 nM; EC50 [8]: 1.3 nM; half-life [18]: 0.783 h; EC50 [9]: 1.7 nM; EC50 [10]: 0.92 nM; EC50 [11]: > 500 nM
Cc1nc2ccccc2c(-c2ccc3c4c(ccnc24)CCO3)c1[C@H](OC(C)(C)C)C(=O)O [BI-224436]	–	49 nM	–	–	–	–	EC50 [1]: 56.3 nM; EC50 [14]: 32 nM; EC50 [19]: 32 nM; EC50 [15]: 32 nM; EC50 [16]: 32 nM; EC50 [5]: 49.1 nM; EC50 [8]: 48.7 nM; EC50 [17]: 32 nM; EC50 [20]: 32 nM; EC50 [9]: 28.1 nM; EC50 [10]: 49.5 nM; EC50 [11]: > 500 nM
